Like-named read-outs stand apart in the source and are kept apart here.
Test system: C. elegans
Assay: microbe, parasite or virus in culture
Settings: Caenorhabditis elegans
[1] = 0 h, read-out: Percentage of motility inhibition 0 h, Table S2, C. elegans SS assay, 110 μM, 0 h, averages of 4 data points
[2] = 24 h, read-out: Percentage of motility inhibition 24 h, Table S2, C. elegans SS assay, 110 μM, 24 h, averages of 4 data points
[3] = 0 h, read-out: Percentage of motility inhibition 0 h
[4] = 24 h, read-out: Percentage of motility inhibition 24 h

| SMILES | inhibition at 110 µM [1] | inhibition at 110 µM [2] | further results |
| --- | --- | --- | --- |
| CC1(C)CC[C@]2(C(=O)O[C@@H]3O[C@H](CO)[C@@H](O)[C@H](O)[C@H]3O)CC[C@]3(C)C(=CC[C@@H]4[C@@]5(C)CC[C@H](O[C@@H]6O[C@H](C(=O)O)[C@@H](O)[C@H](O)[C@H]6O[C@@H]6OC[C@@H](O)[C@H](O)[C@H]6O)C(C)(C)[C@@H]5CC[C@]43C)[C@@H]2C1 [Pseudoginsenoside RT1] | 1% | 0% |  |
| O=C(Nc1ccc(Cl)cc1)Nc1ccc(Cl)c(Cl)c1 [Triclocarban] | 15% | 20% |  |
| COc1cc([C@@H]2c3cc4c(cc3[C@H](O)[C@H]3COC(=O)[C@H]23)OCO4)cc(OC)c1OC [Podofilox] | 0% | 9% |  |
| Cc1ccc2c(Br)cc(Br)c(OC(=O)c3ccccc3)c2n1 [Broxaldine] | 26% | 0% |  |
| Fc1ccccc1-c1nc2ccn(Cc3ccc(-c4ccc(C(F)(F)F)cc4C(F)(F)F)nn3)cc-2n1 [Tegobuvir] | 68% | 34% |  |
| CC(C)=CCC[C@](C)(O[C@@H]1O[C@H](CO[C@H]2O[C@H](CO)[C@@H](O)[C@@H]2O)[C@@H](O)[C@H](O)[C@H]1O)[C@H]1CC[C@]2(C)[C@@H]1[C@H](O)C[C@@H]1[C@@]3(C)CC[C@H](O)C(C)(C)[C@@H]3[C@@H](O)C[C@]12C [Ginsenoside F5] | 43% | 17% |  |
| COc1ccc(-c2cc(=O)c3c(O)cc(O)c(-c4cc(-c5cc(=O)c6c(O)cc(O)cc6o5)ccc4OC)c3o2)cc1 [Isoginkgetin] | 17% | 19% |  |
| C[C@@H]1C/C=C/C=C/C=C/C=C/[C@H](O[C@@H]2O[C@H](C)[C@@H](O)[C@H](N)[C@@H]2O)C[C@@H]2O[C@](O)(C[C@@H](O)C[C@H]3O[C@@H]3/C=C/C(=O)O1)C[C@H](O)[C@H]2C(=O)O [Natamycin] | 26% | 0% |  |
| C=C[C@@H]1C2=CCOC(=O)C2=CO[C@H]1O[C@@H]1O[C@H](CO)[C@@H](O)[C@H](O)[C@H]1O [Gentiopicroside] | 0% | 19% |  |
| COc1ccc(-c2oc3cc(O)cc(O)c3c(=O)c2O)cc1O [Tamarixetin] | 20% | 10% |  |
| COc1cc(O)c2c(=O)c3c(O[C@@H]4O[C@H](CO)[C@@H](O)[C@H](O)[C@H]4O)ccc(O)c3oc2c1 [Swertianolin] | 11% | 0% |  |
| Oc1ccc(Cl)cc1Cc1cc(Cl)ccc1O [Dichlorophen] | 15% | 0% |  |
| CN1CCc2cc3c(cc2[C@H]1[C@@H]1OC(=O)c2c1ccc1c2OCO1)OCO3 [Bicuculline] | 0% | 8% |  |
| C=CCCCCCCCCC(=O)O [10‐Undecenoic acid] | 60% | 67% |  |
| CC1(C)CC[C@]2(C(=O)O)CC[C@]3(C)C(=CC[C@@H]4[C@@]5(C)C[C@@H](O)[C@H](O)C(C)(C)[C@@H]5CC[C@]43C)[C@@H]2C1 [Maslinic acid] | 0% | 5% |  |
| COC(=O)C1=CC[C@@]23CC[C@@H]([C@@](C)(/C=C/C=C(\C)C(=O)O)OC2=O)[C@@]3(O)CC1 [Pseudolaric Acid C] | 31% | 42% |  |
| C[C@@H]1CN(c2c(F)c(N)c3c(=O)c(C(=O)O)cn(C4CC4)c3c2F)C[C@H](C)N1 [Sparfloxacin] | 37% | 11% |  |
| O=C(O)CC(O)(CC(=O)O)C(=O)O [Citric acid] | 0% | 18% |  |
| CCC(=O)c1c(O)cc(O)cc1O [Flopropione] | 40% | 18% |  |
| CO[C@H]1C(=O)[C@]2(C)[C@@H](OC)C[C@H]3OC[C@@]3(OC(C)=O)[C@H]2[C@H](OC(=O)c2ccccc2)[C@]2(O)C[C@H](OC(=O)[C@H](O)[C@@H](NC(=O)OC(C)(C)C)c3ccccc3)C(C)=C1C2(C)C [Cabazitaxel] | 3% | 9% |  |
| c1ccc(C2CN3CCSC3=N2)cc1 (centres unmarked) [Tetramisole, reference compound] |  |  | inhibition at 110 µM (0 h, read-out: Inhibition (%) 110 μM (0 h), C. elegans L4 motility, 110 μM, 0 h, mean ± SD of four experiments): 78 ± 2%; inhibition at 110 µM (24 h, read-out: Inhibition (%) 110 μM (24 h), C. elegans L4 motility, 110 μM, 24 h, mean ± SD of four experiments): 82 ± 3% |
| O=C(/C=C/C=C/c1ccc2c(c1)OCO2)N1CCCCC1 [Piperine] | 0% | 21% |  |
| COc1c(O)cc2occ(-c3ccc(O)cc3)c(=O)c2c1O [Tectorigenin] |  |  | inhibition at 110 µM [3]: 0%; inhibition at 110 µM [4]: 0% |
| CCOC(=O)CCC(=O)O[C@H]1[C@H](O[C@@H]2[C@@H](C)[C@H](O[C@H]3C[C@@](C)(OC)[C@@H](O)[C@H](C)O3)[C@@H](C)C(=O)O[C@H](CC)[C@@](C)(O)[C@H](O)[C@@H](C)C(=O)[C@H](C)C[C@@]2(C)O)O[C@H](C)C[C@@H]1N(C)C [Erythromycin Ethylsuccinate] | 24% | 7% |  |
| O=c1c(O)c(-c2cc(O)c(O)c(O)c2)oc2cc(O)ccc12 [Robinetin] | 39% | 7% |  |
| CC1(C)[C@H](O)CC[C@@]2(C)[C@@H]3CC[C@](C)([C@@H](O)CO[C@@H]4O[C@H](CO)[C@@H](O)[C@H](O)[C@H]4O)C=C3CC[C@H]12 [Darutoside] | 2% | 9% |  |

| SMILES | inhibition at 110 µM [1] | inhibition at 110 µM [2] | further results |
| --- | --- | --- | --- |
| CC(C)c1ccc2c(c1O)CC[C@H]1C3=C(CC[C@]21C)C(=O)OC3 [Triptophenolide] | 11% | 40% |  |
| NC(=O)CC[C@H](N)C(=O)O [L-Glutamine] | 3% | 0% |  |
| CC(=O)O[C@H]1C[C@@]2(C)[C@@H](C[C@@H](O)[C@H]3[C@@]4(C)CC[C@@H](O)[C@@H](C)[C@@H]4CC[C@@]32C)/C1=C(\CCC=C(C)C)C(=O)O [Fusidic acid] | 0% | 1% |  |
| CC[C@@H]1/C=C(\C)C[C@H](C)C[C@H](OC)[C@H]2O[C@@](O)(C(=O)C(=O)N3CCCC[C@H]3C(=O)O[C@H](/C(C)=C/[C@@H]3CC[C@@H](O)[C@H](OC)C3)[C@H](C)[C@@H](O)CC1=O)[C@H](C)C[C@@H]2OC [Ascomycin] | 6% | 0% |  |
| O=C(OCC1=C[C@@H](O)[C@@H]2C=CO[C@@H](O[C@@H]3O[C@H](CO)[C@@H](O)[C@H](O)[C@H]3O)[C@H]12)c1ccc(O)cc1 [Agnuside] | 2% | 15% |  |
| COc1c(/C=C/C(=O)c2ccc(O)c(CC=C(C)C)c2)ccc(O)c1O [Licochal cone D] | 15% | 0% |  |
| NC(=O)Cc1c[nH]c2ccccc12 [Indole‐3‐acetamide] | 0% | 0% |  |
| COc1ccc(-c2cc(=O)c3c(O)c(OC)c(OC)cc3o2)cc1O [Eupatorin] | 7% | 26% |  |
| CC(C)(CO)[C@@H](O)C(=O)NCCC(=O)O [D-Pantothenic acid] | 9% | 10% |  |
| COc1cc(C=O)ccc1O [Vanillin] | 24% | 11% |  |
| CC(=O)N1CCN(c2ccc(OCC3COC(Cn4ccnc4)(c4ccc(Cl)cc4Cl)O3)cc2)CC1 (centres unmarked) [Ketoconazole] | 13% | 0% |  |
| O=c1cc(-c2ccc(O)cc2)oc2cc(O)c([C@@H]3O[C@H](CO)[C@@H](O)[C@H](O)[C@H]3O)c(O)c12 [Isovitexin] | 11% | 6% |  |
| Oc1cc(O)c2c(c1)O[C@H](c1ccc(O)c(O)c1)[C@H](O)[C@H]2c1c(O)cc(O)c2c1O[C@H](c1ccc(O)c(O)c1)[C@H](O)[C@H]2c1c(O)cc(O)c2c1O[C@H](c1ccc(O)c(O)c1)[C@H](O)C2 [Procyanidin C1] | 2% | 29% |  |
| COc1ccc(-c2oc3c(CC=C(C)C)c(O)cc(O)c3c(=O)c2O)cc1 [Icaritin] | 0% | 2% |  |
| CC1=CC(=O)C(C(C)C)CC1 (centres unmarked) [Piperitone] | 10% | 11% |  |
| CCn1cc(C(=O)O)c(=O)c2cnc(N3CCCC3)nc21 [Piromidic acid] | 9% | 8% |  |
| O=c1c(O)c(-c2ccc(O)cc2)oc2c(O)c(O)cc(O)c12 [Herbacetin] |  |  | inhibition at 110 µM [3]: 4%; inhibition at 110 µM [4]: 13% |
| C[C@@H]1O[C@@H](OC[C@H]2O[C@@H](Oc3cc(O)c4c(c3)O[C@H](c3ccc(O)cc3)CC4=O)[C@H](O)[C@@H](O)[C@@H]2O)[C@H](O)[C@H](O)[C@H]1O [Narirutin] | 39% | 19% |  |
| Nc1ccc(S(=O)(=O)Nc2ncccn2)cc1 [Sulfadiazine] | 14% | 7% |  |
| COC(=O)[C@]12CCCC(C)(C)[C@@H]1CCc1cc(C(C)C)c(O)c(O)c12 [Methyl carnosate] | 0% | 63% |  |
| CC(=O)O[C@@H]1[C@H]2[C@H]3C[C@H]4C5=Nc6ccccc6[C@]51C[C@@H]2N4[C@H](C)C3C=O (some centres unmarked) [Perakine] | 0% | 0% |  |
| c1cncc(C2=NCCC2)c1 [Myosmine] | 18% | 24% |  |
| C[N+](C)(C)[C@@H](Cc1c[nH]c2ccccc12)C(=O)[O-] [Hypaphorine] | 0% | 0% |  |
| Cc1ncc(COP(=O)(O)O)c(C=O)c1O [Pyridoxal phosphate] | 11% | 4% |  |
| CCCCCCCCCCCCCCCCCCCCCCO [1‐Docosanol] | 33% | 25% |  |
| Oc1c(I)cc(Cl)c2cccnc12 [Clioquinol] | 23% | 0% |  |
